Test results taken from patent US4056625A, “Pesticidal compositions containing benzodioxole derivatives and methods of combating pests” (priority 1972, dated 1977).
In brackets after ≈: the same amount, converted by molar mass. Read-outs that look alike come from different tables or passages of the source.

What was measured:
[1] = system: 2nd stage nymph of the German cockroach (Blattella germanica); assay: LC50 against German cockroach nymphs in treated glass tubes (Example 69); type: in vivo; conditions: for LC50 value: 2nd stage nymph German cockroach, 48 hours, 0-6 scale
Experimental: Compounds 2 and 4 and also 2,2-dimethyl-1,3- benzodioxol-4-yl N-methylcarbamate(compound 5) and 2,2-dimethyl-1,3-benzodioxol-4-yl N-acetyl-N-methylcarbamate (compound 6) were tested for activity against the 2nd stage nymph of the German cockroach (Blattella germanica), of the order Orthoptera, by treating the walls of glass tubes (9.0 cm high × 4.5 cm diameter) with acetone solutions of the compounds and after the acetone had evaporated caging the insects in the tubes for 48 hours. The highest dosage rate employed was 50 mg/ft^2 (532 mg/m^2).
(§1) If complete kill was obtained at the highest dosage rate, the test was repeated using a logarithmically reducing dose regime until less than 50% mortality was recorded. The LC50 was then calculated from the line of best fit from the data plotted on log/provit analysis paper.
The LC50 values are abbreviated on a 0-6 scale where

[2] = system: German cockroaches (Blattella germanica); assay: Persistency against German cockroaches on treated glass plates (Example 74); type: in vivo; conditions: 100 mg/ft^2 (1.065 g/m^2), 2nd stage nymphs, 7 day intervals until less than 50% mortality
Experimental: Persistency was measured against German cockroaches (Blattella germanica), or the order Orthoptera, by treating glass plates with acetone solutions of the compunds listed below to produce a deposit equivalent to 100 mg/ft^2 (1.065 g/m^2), and caging 2nd stage nymph cockroaches on these surfaces for 48 hours at 7 day intervals until less than 50% mortality was recorded.

[3] = system: larvae of the sheep maggot fly (Lucilia sericata); assay: LC50 against sheep maggot fly larvae on dental rolls (Example 71); type: in vivo; conditions: for LC50: Lucilia sericata, read-out: LC50 value
Experimental: as §1
(§2) Similarly LC50 values were obtained against various pests as described in Examples 70-73 where, however, the LC50 values are abbreviated on a 0-6 scale where
Similarly, LC50 values were obtained for each of Compounds 1, 2, 3, 4, 5 and 6 against larvae of the sheep maggot fly (Lucilia sericata), of the order Diptera. The tests were carried out by placing newly hatched larvae on dental rolls contained in glass vials and soaked with 1 ml of blood serum containing the compound. The mortality was assessed after 24 hours. The highest dosage rate employed was 1000 ppm.

[4] = system: adult female houseflies (Musca domestica); assay: LC50 against adult female houseflies on filter papers (Example 70); type: in vivo; conditions: for LC50 value: adult female houseflies, 24 hours, 0-6 scale (mg/ft^2); for activity against houseflies (in words): compared with compound 5
Experimental: as §1, §2
LC50 values were obtained for each of Compounds 1, 2, 3, 4, 5 and 6 against adult female houseflies (Musca domestica), of the order Diptera. The tests were carried out by adding acetone solutions of the compounds to 9 cm diameter filter papers in the base of 9 cm diameter crystallising dishes, placing the houseflies in the dishes after the acetone had evaporated, closing the dishes with Petri dish lids and counting the mortality after 24 hours. The highest dosage rate employed was 1000 mg/ft^2 (10.65 g/m^2).

[5] = Acute oral LD50 to mice (Example 76); design: species or system mouse (Carshalton CFW strain); conditions: in vivo, mouse, by stomach tube in 0.4% tragacanth, up to 5 days
Experimental: (§3) Mammalian toxicity was assessed by measuring the acute oral LD50 to rats and mice. Componds were dissolved or suspended in a 0.4% tragacanth solution and administered by stomach tube to the test animal. The mice used were 10 to 15 g weanlings of the Carshalton CFW strain whilst the rats were 30 to 40 g weanlings of Wystar strain. Three replicates per dosage rate were employed and the mortality was recorded daily for up to 5 days. The LD50 values were calculated as for those for insecticidal and acaricidal activity above.

[6] = system: sheep maggot fly (Lucila sericata); assay: Persistency on sheep against sheep maggot fly; type: in vivo; conditions: compared with compound 5
[7] = system: adult red spider mites (Tetranychus telarius); assay: LC50 against adult red spider mites on sprayed French beans (Example 73); type: in vivo; conditions: read-out: LC50 value
Experimental: as §1, §2
Similarly, LC50 values were obtained for each of Compounds 1, 2, 4, 5 and 6 against adult red spider mites (Tetranychus telarius), of the order Acarina. The tests were carried out by spraying infected French beans with a 50% acetone water solution of the compound, containing 500 ppm of Lissapol NX as a wetting agent, and recording the mortality after 48 hours. The highest dosage rate employed was 1000 ppm which is equivalent to 10 lb/acre (11.20 kg/ha).

[8] = Solubility; type: physicochemical; conditions: compared with compound 5
[9] = system: larvae of the cattle tick (Boophilus microplus); assay: LC50 against cattle tick larvae (Example 72); type: in vivo; conditions: Rhipicephalus microplus, 24 hours, 0-6 scale (ppm)
Experimental: as §1, §2
Similarly, LC50 values were obtained for each of Compounds 2 and 4 against larvae of the cattle tick (Boophilus microplus), of the order Acarina. The tests were carried out evaporating 1 ml of an acetone solution of the compound on 9 cm diameter filter papers, folding the papers twice in half after drying to give quadrant shaped packets and sealing the tick larvae therein for 24 hours by means of a paper clip. The highest dosage rate employed was 1000 ppm.

[10] = system: rats and mice; assay: Mammalian toxicity (overall comparison); type: in vivo; conditions: compared with compound 5
Experimental: as §3

[11] = system: adult female houseflies (Musca domestica); assay: Housefly mortality on treated filter papers (Examples 32-40); type: in vivo; conditions: 100 milligrams per square foot, after 24 hours
Text: 9 centimeter diameter filter papers treated with aqueous acetone solutions of each of the compounds
at rates equivalent to 100 milligrams per square foot (100 mgm./0.09 m^2.) of active ingredient were placed in 9 centimeter diameter Petri dishes. Batches of adult female houseflies (Musca domestica) lightly anaesthetised with carbon dioxide were then introduced into the dishes and a glass lid placed over each.

[12] = system: first instar larvae of the sheep blowfly (Lucilia sericata); assay: Sheep blowfly larvae on treated cotton wool pads (Examples 53-60); type: in vivo; conditions: 1/2 ml. of acetone solution on cotton wool pads, after 24 hours
Experimental: Cylindrical pads of cotton wool, approximate diameter 1 cm., length 2 cms. were treated with 1/2 ml. of acetone solutions of the following carbamates:
After leaving for 12 hours to dry, the pads were treated with 1 ml. of sheep blood serum and infested with 20 first instar larvae of the sheep blowfly (Lucilia sericata). After 24 hours, the blowflies were examined and found to be all dead; insects similarly infested on untreated pads were unaffected.

[13] = Acute oral LD50 to rats (Example 76); type: in vivo, rat (Wystar strain); conditions: in vivo, po; rat male, by stomach tube in 0.4% tragacanth, up to 5 days
Experimental: as §3

[14] = system: second instar larvae of the cabbage white butterfly (Pieris brassicae); assay: Cabbage white butterfly larvae on treated cabbage leaf discs (Examples 41-48); type: in vivo; conditions: 10, 5, 1, 0.5 and 0.25 pounds per acre, three replications, after 48 hours
Text: 7 centimeter diameter circular discs of cabbage leaves were painted with 1 milliliter aqueous acetone solutions of each of the following compounds:
in each case at concentrations equivalent to leaf applications of 10, 5, 1, 0.5 and 0.25 pounds per acre (11.2, 5.6, 1.12, 0.56 and 0.28 kg./hectare) of active ingredient. When the deposit on the leaf discs had dried, each leaf disc was placed in a 9 centimeter diameter Petri dish, infested with ten second instar larvae of the cabbage white butterfly (Pieris brassicae) and covered with a glass lid. Three replications were made with each compound at each concentration level.

[15] = system: first stage larvae of the cattle tick, Boophilus microplus; assay: Cattle tick larvae in treated filter paper packets (Example 65); type: in vivo; conditions: 30 parts per million, 25° C, 24 hours
Experimental: Filter papers, diameter 9 cm., were treated with 1 ml. of acetone solutions containing 30 parts per million of 2,2-dimethyl-1,3-benzodioxol-4-yl N-methylcarbamate or 7-chloro-2,2-dimethyl-1,3-benzodioxol-4-yl N-methylcarbamate. When they had dried, they were folded into quadrant shaped packets, infested with 20 first stage larvae of the cattle tick, Boophilus microplus, closed with a metal clip and kept at 25° C for 24 hours.

[16] = system: adult apterous vetch aphids (Megoura viciae); assay: Vetch aphids on sprayed field beans (Examples 49 and 50); type: in vivo; conditions: 100 parts per million, 50 gallons per acre, 24 hours
Text: Aqueous suspensions containing 100 parts per million of 2,2-dimethyl-1,3-benzodioxol-4-yl N-methylcarbamate and 2,2-dimethyl-1,3-benzodioxol-4-yl N-acetyl-N-methylcarbamate were sprayed at a rate equivalent to 50 gallons per acre (585 liters per hectare) on young field beans (Vicia faba) infested with adult apterous vetch aphids (Megoura viciae). After treatment the plants were enclosed in glass cages with gauze tops for ventilation.

[17] = system: domestic and public health insect pests; assay: Indoor treatment against domestic and public health insect pests; type: in vivo; conditions: 200 mg per square meter, aqueous spray containing 0.25% active ingredient; ants, bed bugs, fleas, houseflies, silverfish, mosquitoes, wasps, carpet beetles, crickets, cockroaches
Text: In a preferred application, the compounds and especially 2,2-dimethyl-1,3-benzodioxol-4-yl N-methylcarbamate are used to combat domestic and public health insect pests. For this use, the compounds are generally applied indoors, e.g. in buildings or on ships, for example in food preparation or storage areas e.g. in houses, flats, warehouses and ships. The compounds are suitably applied at a rate of 50-2000, preferably about 50-1,000, for example 200, mg per square meter.

[18] = system: rats; assay: Acute oral LD50 to rats (Example 76); type: in vivo, rat (Wystar strain); conditions: rat female, by stomach tube in 0.4% tragacanth, up to 5 days
Experimental: as §3

| Compound | LC50 value [1] | activity against cockroaches (in words) [1] | LC50 ([3]; 24 h) | LC50 value [4] | activity against houseflies (in words) [4] | LD50 at 120 h [5] | solubility in organic solvents (in words) [8] | mammalian toxicity (in words) [10] | mortality of houseflies [11] | LD50 at 120 h [13] | further results |
| --- | --- | --- | --- | --- | --- | --- | --- | --- | --- | --- | --- |
| CCCCC(=O)N(C)C(=O)Oc1cccc2c1OC(C)(C)O2 [Compound 4, 2,2-dimethyl-1,3-benzodioxol-4-yl N-pentanoyl-N-methylcarbamate] | 5 (0.15-0.5 mg/ft^2 (1.6-5.3 mg/m^2)) | outstandingly good activity against cockroaches | 30 to 99 µg/mL (≈ 97.6 to 322 µM) | 4 (10-29 mg/ft^2 (107-310 mg/m^2)) | as good or better activity against houseflies than does compound 5 | 170 mg/kg | higher solubility in organic solvents than is compound 5 | lower mammalian toxicity than does compound 5 | – | – | Persistency [2]: > 35 days; persistency on sheep against sheep maggot fly (in words) [6]: much better persistency on sheep; LC50 ([7]; 48 h): 300 to 1000 µg/mL (≈ 976 to 3250 µM); LC50 [9]: 30 to 99 µg/mL (≈ 97.6 to 322 µM) |
| CNC(=O)Oc1cccc2c1OC(C)(C)O2 [Compound 5, 2,2-dimethyl-1,3-benzodioxol-4-yl N-methylcarbamate] | 5 (0.15-0.5 mg/ft^2 (1.6-5.3 mg/m^2)) | outstandingly good activity against cockroaches | – | 4 (10-29 mg/ft^2 (107-310 mg/m^2)) | – | 45 mg/kg | – | – | all found to be dead | 45 mg/kg | mortality of sheep blowfly larvae [12]: all dead; LC50 ([3]; sheep maggot fly larvae, 24 hours, 0-6 scale (ppm)): 3 to 9 µg/mL (≈ 13.4 to 40.3 µM); mortality of cabbage white butterfly larvae [14]: all found to be dead; mortality of cattle tick larvae [15]: all the ticks in the treated filter papers were dead; LC50 ([7]; adult red spider mites, 48 hours, 0-6 scale (ppm)): > 1000 µg/mL; kill of vetch aphids [16]: complete kill of the aphids in 24 hours; effectiveness against domestic and public health pests (in words) [17]: effective against a wide range of such pests |
| CCCC(=O)N(C)C(=O)Oc1cccc2c1OC(C)(C)O2 [Compound 3, 2,2-dimethyl-1,3-benzodioxol-4-yl N-butyryl-N-methylcarbamate] | – | – | 3 to 9 µg/mL (≈ 10.2 to 30.7 µM) | 4 (10-29 mg/ft^2 (107-310 mg/m^2)) | as good or better activity against houseflies than does compound 5 | 2000 mg/kg | higher solubility in organic solvents than is compound 5 | lower mammalian toxicity than does compound 5 | all found to be dead | > 1000 mg/kg | Acute oral LD50, rat female [18]: > 1000 mg/kg body wt.; activity against sheep maggot fly (in words) ([3]; compared with compound 5): as active as compound 5 against sheep maggot fly |
